Source: patent EP4603105A1, “PHARMACEUTICAL COMPOSITION CONTAINING CYCLIC COMPOUND HAVING SELECTIVE KRAS INHIBITORY EFFECT AGAINST HRAS AND NRAS” (CHUGAI SEIYAKU KABUSHIKI KAISHA, priority 2022, dated 2024)
*1 amine or outer side, *2 acyl side, *3 side chain or, on linkers, in order; H or OH if unused. Where a SMILES comes first, the peptide text is derived from it. Bridges are numbered along the chain shown (N, C = ends). [ ]: non-standard residue; d: D form. The star is where a group is joined. hPhe(3-Cl-4-CF3) = N[C@@H](CCc1ccc(C(F)(F)F)c(Cl)c1)C(=O)O; NPrPhe(4-CF3) = CCCN[C@@H](Cc1ccc(C(F)(F)F)cc1)C(=O)O; NMeGly(cPent) = CN[C@H](C(=O)O)C1CCCC1; X9 = CC1(C)CN([*:1])[C@@H]1C(=O)[*:2]; NMeD = CN[C@@H](CC(=O)O)C(=O)O; NMeL = CN[C@@H](CC(C)C)C(=O)O; Morpholide = C1CN(*)CCO1; Ac5c = NC1(C(=O)O)CCCC1; Aze = O=C(O)[C@@H]1CCN1; Sar = CNCC(=O)O

Key:
[1] = test system: human lung cancer strain NCI-H441; type: cell-based
In short: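 Signal came from […] measured per well once the reagent was added. Beforehand, cells were cultured at 37°C and 5% carbon dioxide on a compound series serially diluted in dimethyl sulfoxide.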

[2] = target: GDP-bound KRAS wild-type protein (Homo sapiens, UniProt P01116); assay: Binding to KRAS by surface plasmon resonance (SPR), dissociation constant KD
In short: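 Affinity is measured by surface plasmon resonance at 30°C against captured, GDP-loaded RAS carrying a biotinylated Avi tag. Compounds are titrated by single-cycle kinetics, and KD comes from a 1:1 fit.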

[3] = target: GDP-bound NRAS wild-type protein (Homo sapiens, UniProt P01111); assay: Binding to NRAS by surface plasmon resonance (SPR), KD and KD ratio to KRAS
In short: (§1)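 Each cycle, GDP-bound biotin-Avi RAS was captured (~100–300 RU), compound concentrations were injected low to high for 75 s each at 100 µL/min, then the chip was regenerated. Buffer: HBS pH 7.4, 10 mM MgCl2, 10 µM GDP, 1 mM DTT, 4% DMSO; 30°C. KD from a 1:1 binding model.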

[4] = target: HRAS wild-type protein (Homo sapiens, UniProt P01112); assay: Binding to HRAS by surface plasmon resonance (SPR), KD and KD ratio to KRAS
In short: as §1

[5] = ratio of KD for GDP-bound NRAS wild-type protein to KD for KRAS
[6] = ratio of KD for HRAS wild-type protein to KD for KRAS
[7] = Single Cycle Kinetics, 1:1 binding model
[8] = ratio of KD value for GDP-bound NRAS wild-type protein to KD value for KRAS (SPR)
[9] = ratio of KD value for HRAS wild-type protein to KD value for KRAS (SPR)

GDP-bound KRAS wild-type protein, sequence (P01116 1-188 isoform P01116-2): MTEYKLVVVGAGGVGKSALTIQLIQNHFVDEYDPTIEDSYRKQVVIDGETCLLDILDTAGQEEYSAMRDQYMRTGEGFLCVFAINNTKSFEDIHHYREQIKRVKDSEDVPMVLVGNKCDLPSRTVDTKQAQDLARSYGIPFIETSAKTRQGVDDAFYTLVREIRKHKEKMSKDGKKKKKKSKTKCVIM
HRAS wild-type protein, sequence (P01112 whole entry): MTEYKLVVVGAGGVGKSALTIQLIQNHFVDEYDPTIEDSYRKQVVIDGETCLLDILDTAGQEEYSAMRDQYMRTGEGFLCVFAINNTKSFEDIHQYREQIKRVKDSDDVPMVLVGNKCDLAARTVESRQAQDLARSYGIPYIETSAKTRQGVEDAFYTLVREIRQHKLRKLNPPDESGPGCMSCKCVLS
GDP-bound NRAS wild-type protein, sequence (P01111 whole entry): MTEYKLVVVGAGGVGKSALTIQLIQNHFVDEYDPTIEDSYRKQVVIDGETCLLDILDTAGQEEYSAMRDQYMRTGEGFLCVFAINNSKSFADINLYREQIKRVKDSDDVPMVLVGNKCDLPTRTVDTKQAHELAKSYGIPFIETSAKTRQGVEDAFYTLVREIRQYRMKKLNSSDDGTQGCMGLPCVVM

Row | Structure (SMILES) | IC50 [1] | Kd ([2]; Single Cycle Kinetics) | NRAS /KRAS [3, 5] | HRAS /KRAS [4, 6] | Kd ([2]; 1:1 binding model) | Kd [2, 7] | NRAS /KRAS [3, 8] | HRAS /KRAS [4, 9]
1 | CC[C@H](C)[C@@H]1NC(=O)[C@H](CC(C)C)N(C)C(=O)C[C@@H](C(=O)N2CCOCC2)N(C)C(=O)[C@H](C2CCCC2)N(C)C(=O)C2(CCC2)NC(=O)[C@@H]2CC(F)(F)CN2C(=O)[C@H](CCc2ccc(C(F)(F)F)c(Cl)c2)NC(=O)CN(C)C(=O)[C@H](Cc2ccc(F)cc2)N2CCCCC[C@@H](C2=O)N(C)C(=O)CN(C)C1=O [PP0969] | 13.6 nM | 0.12 nM | B (a compound having 3 or more and less than 10 is denoted as B) | B (a compound having 3 or more and less than 10 is denoted as B) | – | – | – | –
2 | CCCN1C(=O)[C@@H]2CCN2C(=O)[C@H]2N(CC2(C)C)C(=O)[C@H]([C@@H](C)CC)NC(=O)[C@H](CC(C)C)N(C)C(=O)C[C@@H](C(=O)N2CCOCC2)N(C)C(=O)[C@H](C2CCCC2)N(C)C(=O)C2(CCCC2)NC(=O)[C@@H]2CCCN2C(=O)[C@H](CCc2ccc(C(F)(F)F)c(Cl)c2)NC(=O)CN(C)C(=O)[C@@H]1Cc1ccc(C(F)(F)F)cc1 [PP0277] ([NMeL]I[X9][Aze][NPrPhe(4-CF3)][Sar][hPhe(3-Cl-4-CF3)]P[Ac5c][NMeGly(cPent)][NMeD]-Morpholide; lactam N-11) | 6.7 nM | – | C (A compound having a KD ratio of 0.1 or more and less than 3 is denoted as C) | C (A compound having a KD ratio of 0.1 or more and less than 3 is denoted as C) | 0.53 nM | – | – | –
3 | CCO[C@@H]1C[C@H]2C(=O)NC3(CCC3)C(=O)N(C)[C@@H](C(CC)CC)C(=O)N(C)[C@H](C)CC(=O)N(C)[C@@H](CC(C)C)C(=O)N[C@@H]([C@@H](C)CC)C(=O)N(C)CC(=O)N(C)[C@H]3C/C=C\CCN(C3=O)[C@@H](Cc3ccc(F)cc3)C(=O)N(C)CC(=O)N[C@@H](CCc3cc(F)c(C(F)(F)F)c(F)c3)C(=O)N2C1 [PP1525] | 132 nM | – | – | – | – | 1.7 nM | A (a compound having 10 or more and less than 20 is denoted as A) | A (a compound having 10 or more and less than 20 is denoted as A)
4 | CC[C@H](C)[C@@H]1NC(=O)[C@H](CC(C)C)N(C)C(=O)C[C@@H](C(=O)N(C)C)N(C)C(=O)[C@H](C2CCCC2)N(C)C(=O)C2(CCC2)N(C)C(=O)[C@@H]2CCCN2C(=O)[C@H](CCc2cc(F)c(C(F)(F)F)c(F)c2)NC(=O)CN(C)C(=O)[C@H](Cc2ccc(C)cc2)N2CC/C=C\C[C@@H](C2=O)N(C)C(=O)CN(C)C1=O [PP1791] | 3.7 nM | – | – | – | – | 0.042 nM | A (a compound having 10 or more and less than 20 is denoted as A) | A (a compound having 10 or more and less than 20 is denoted as A)
5 | CCO[C@@H]1C[C@H]2C(=O)NC3(CC(C)(C)C3)C(=O)N(C)[C@@H](C3CCCC3)C(=O)N(C)[C@H](C(=O)N(C)CC)CC(=O)N(C)[C@@H]([C@@H](C)OC)C(=O)N[C@@H]([C@@H](C)CC)C(=O)N3CCC[C@H]3C(=O)N(C)[C@H]3C/C=C\CCN(C3=O)[C@@H](Cc3ccc(C)cc3)C(=O)N(C)CC(=O)N[C@@H](CCc3ccc(C(F)(F)F)c(Cl)c3)C(=O)N2C1 [PP3192] | 41.3 nM | – | A (a compound having 10 or more and less than 20 is denoted as A) | A (a compound having 10 or more and less than 20 is denoted as A) | 0.96 nM | – | – | –
6 | CCO[C@@H]1C[C@H]2C(=O)NC3(CCC3)C(=O)N(C)[C@@H](C3CCCC3)C(=O)N(C)[C@H](C)CC(=O)N(C)[C@@H](CC3CC3)C(=O)N[C@@H]([C@@H](C)CC)C(=O)N(C)CC(=O)N(C)[C@H]3C/C=C\CCN(C3=O)[C@@H](Cc3ccc(F)cc3C)C(=O)N(C)CC(=O)N[C@@H](CCc3cc(F)c(C(F)(F)F)c(F)c3)C(=O)N2C1 [PP1489] | 118 nM | – | – | – | – | 2.6 nM | B (a compound having 3 or more and less than 10 is denoted as B) | B (a compound having 3 or more and less than 10 is denoted as B)
